Assay [1] has as its target LIM domain kinase 1 (Homo sapiens) (UniProt P53667). Briefly: Inhibition of human LIMK1 at 1.82 nM by HotSpot assay relative to control.
In assay [2] the target is Casein kinase I isoform alpha (Homo sapiens) (UniProt P48729). Briefly: Inhibition of human CK1a1 at 1.82 nM by HotSpot assay relative to control.
Assay [3] concerns the target Vascular endothelial growth factor receptor 3 (Homo sapiens) (UniProt P35916). Briefly: Inhibition of human FLT4 at 1.82 nM by HotSpot assay relative to control.
In assay [4] the target is STE20-like serine/threonine-protein kinase (Homo sapiens) (UniProt Q9H2G2). Briefly: Inhibition of human STK2 at 1.82 nM by HotSpot assay relative to control.
The target of assay [5] is Ribosomal protein S6 kinase alpha-3 (Homo sapiens) (UniProt P51812). Briefly: Inhibition of human RSK2 at 18.6 nM by HotSpot assay relative to control.
Ribosomal protein S6 kinase alpha-3 (Homo sapiens), sequence (P51812 whole entry): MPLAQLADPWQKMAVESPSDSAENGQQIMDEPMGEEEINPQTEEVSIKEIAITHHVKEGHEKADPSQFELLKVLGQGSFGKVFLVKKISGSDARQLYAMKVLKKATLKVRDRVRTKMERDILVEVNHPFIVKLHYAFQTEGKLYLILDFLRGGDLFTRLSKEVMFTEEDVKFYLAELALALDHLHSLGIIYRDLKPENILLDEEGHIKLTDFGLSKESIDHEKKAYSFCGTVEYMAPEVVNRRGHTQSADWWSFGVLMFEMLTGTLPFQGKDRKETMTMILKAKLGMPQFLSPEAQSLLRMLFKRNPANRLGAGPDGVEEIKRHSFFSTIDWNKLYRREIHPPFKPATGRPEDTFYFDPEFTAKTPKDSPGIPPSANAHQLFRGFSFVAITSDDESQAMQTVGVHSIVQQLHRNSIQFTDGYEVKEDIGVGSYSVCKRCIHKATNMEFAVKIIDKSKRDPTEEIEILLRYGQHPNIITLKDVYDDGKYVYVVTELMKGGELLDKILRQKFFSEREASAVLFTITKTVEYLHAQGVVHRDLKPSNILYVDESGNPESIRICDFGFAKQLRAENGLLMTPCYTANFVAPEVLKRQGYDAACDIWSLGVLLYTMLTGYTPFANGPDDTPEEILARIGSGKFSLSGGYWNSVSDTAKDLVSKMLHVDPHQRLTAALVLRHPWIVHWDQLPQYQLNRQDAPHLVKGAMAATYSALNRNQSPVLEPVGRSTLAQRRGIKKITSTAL
Assay [6] concerns the target T1, Beta-adrenergic receptor kinase 1 (Homo sapiens) (UniProt P25098).
T1 sequence (whole entry): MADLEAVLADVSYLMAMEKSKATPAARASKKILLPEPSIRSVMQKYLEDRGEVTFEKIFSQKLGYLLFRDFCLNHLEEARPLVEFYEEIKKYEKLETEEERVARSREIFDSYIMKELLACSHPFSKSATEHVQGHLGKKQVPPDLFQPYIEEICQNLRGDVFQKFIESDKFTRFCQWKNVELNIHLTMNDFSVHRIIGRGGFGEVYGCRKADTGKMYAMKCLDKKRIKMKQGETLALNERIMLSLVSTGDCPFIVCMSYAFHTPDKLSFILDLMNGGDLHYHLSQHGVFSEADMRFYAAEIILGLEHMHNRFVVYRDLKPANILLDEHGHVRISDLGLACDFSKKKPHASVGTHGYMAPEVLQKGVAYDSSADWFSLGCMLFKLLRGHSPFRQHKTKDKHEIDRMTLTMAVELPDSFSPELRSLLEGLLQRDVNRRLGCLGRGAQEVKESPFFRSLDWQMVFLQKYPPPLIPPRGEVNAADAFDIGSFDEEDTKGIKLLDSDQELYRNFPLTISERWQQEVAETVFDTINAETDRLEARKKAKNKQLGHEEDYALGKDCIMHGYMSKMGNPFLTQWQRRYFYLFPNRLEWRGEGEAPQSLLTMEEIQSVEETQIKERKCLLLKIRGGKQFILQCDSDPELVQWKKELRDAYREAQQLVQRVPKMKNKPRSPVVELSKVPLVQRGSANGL
Briefly: Inhibition of human GRK2 at 18.6 nM by HotSpot assay relative to control.

Assay [7] addresses Non-receptor tyrosine-protein kinase TYK2 (Homo sapiens) (UniProt P29597). Briefly: Inhibition of human TYK2 at 18.6 nM by HotSpot assay relative to control.
For assay [8], the target named is T2, Serine/threonine-protein kinase ULK1 (Homo sapiens) (UniProt O75385).
T2 sequence (whole entry): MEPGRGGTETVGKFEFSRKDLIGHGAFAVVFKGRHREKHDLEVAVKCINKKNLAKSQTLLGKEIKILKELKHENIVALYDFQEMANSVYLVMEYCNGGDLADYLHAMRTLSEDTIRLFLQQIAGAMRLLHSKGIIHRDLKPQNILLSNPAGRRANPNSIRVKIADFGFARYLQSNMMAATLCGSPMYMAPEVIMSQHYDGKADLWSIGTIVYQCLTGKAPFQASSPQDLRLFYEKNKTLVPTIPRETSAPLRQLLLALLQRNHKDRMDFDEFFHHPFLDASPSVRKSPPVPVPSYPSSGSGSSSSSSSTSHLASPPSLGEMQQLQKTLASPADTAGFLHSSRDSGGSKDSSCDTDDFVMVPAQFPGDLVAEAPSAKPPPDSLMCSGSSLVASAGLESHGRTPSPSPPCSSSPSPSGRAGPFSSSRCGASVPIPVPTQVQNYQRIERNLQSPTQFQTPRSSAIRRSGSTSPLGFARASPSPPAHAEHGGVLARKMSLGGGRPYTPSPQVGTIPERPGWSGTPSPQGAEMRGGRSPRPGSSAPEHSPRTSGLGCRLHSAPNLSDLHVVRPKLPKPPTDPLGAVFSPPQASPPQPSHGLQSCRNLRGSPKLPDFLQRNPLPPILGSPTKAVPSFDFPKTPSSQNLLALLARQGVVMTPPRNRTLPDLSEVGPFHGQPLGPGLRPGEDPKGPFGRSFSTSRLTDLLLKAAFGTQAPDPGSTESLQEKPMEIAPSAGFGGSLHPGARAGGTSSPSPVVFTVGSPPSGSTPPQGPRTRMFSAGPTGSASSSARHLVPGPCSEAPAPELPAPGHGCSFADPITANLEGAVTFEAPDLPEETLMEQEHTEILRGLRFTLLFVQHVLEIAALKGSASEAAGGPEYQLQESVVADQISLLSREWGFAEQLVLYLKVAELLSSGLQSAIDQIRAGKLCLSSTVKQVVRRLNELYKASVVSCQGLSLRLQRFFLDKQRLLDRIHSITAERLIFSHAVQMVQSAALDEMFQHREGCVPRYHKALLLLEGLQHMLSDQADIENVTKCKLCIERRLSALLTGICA
Briefly: Inhibition of human ULK1 at 18.6 nM by HotSpot assay relative to control.

The target in assay [9] is Proto-oncogene tyrosine-protein kinase ROS (Homo sapiens) (UniProt P08922). Briefly: Inhibition of human ROS1 at 18.6 nM by HotSpot assay relative to control.
Proto-oncogene tyrosine-protein kinase ROS (Homo sapiens), sequence (P08922 whole entry): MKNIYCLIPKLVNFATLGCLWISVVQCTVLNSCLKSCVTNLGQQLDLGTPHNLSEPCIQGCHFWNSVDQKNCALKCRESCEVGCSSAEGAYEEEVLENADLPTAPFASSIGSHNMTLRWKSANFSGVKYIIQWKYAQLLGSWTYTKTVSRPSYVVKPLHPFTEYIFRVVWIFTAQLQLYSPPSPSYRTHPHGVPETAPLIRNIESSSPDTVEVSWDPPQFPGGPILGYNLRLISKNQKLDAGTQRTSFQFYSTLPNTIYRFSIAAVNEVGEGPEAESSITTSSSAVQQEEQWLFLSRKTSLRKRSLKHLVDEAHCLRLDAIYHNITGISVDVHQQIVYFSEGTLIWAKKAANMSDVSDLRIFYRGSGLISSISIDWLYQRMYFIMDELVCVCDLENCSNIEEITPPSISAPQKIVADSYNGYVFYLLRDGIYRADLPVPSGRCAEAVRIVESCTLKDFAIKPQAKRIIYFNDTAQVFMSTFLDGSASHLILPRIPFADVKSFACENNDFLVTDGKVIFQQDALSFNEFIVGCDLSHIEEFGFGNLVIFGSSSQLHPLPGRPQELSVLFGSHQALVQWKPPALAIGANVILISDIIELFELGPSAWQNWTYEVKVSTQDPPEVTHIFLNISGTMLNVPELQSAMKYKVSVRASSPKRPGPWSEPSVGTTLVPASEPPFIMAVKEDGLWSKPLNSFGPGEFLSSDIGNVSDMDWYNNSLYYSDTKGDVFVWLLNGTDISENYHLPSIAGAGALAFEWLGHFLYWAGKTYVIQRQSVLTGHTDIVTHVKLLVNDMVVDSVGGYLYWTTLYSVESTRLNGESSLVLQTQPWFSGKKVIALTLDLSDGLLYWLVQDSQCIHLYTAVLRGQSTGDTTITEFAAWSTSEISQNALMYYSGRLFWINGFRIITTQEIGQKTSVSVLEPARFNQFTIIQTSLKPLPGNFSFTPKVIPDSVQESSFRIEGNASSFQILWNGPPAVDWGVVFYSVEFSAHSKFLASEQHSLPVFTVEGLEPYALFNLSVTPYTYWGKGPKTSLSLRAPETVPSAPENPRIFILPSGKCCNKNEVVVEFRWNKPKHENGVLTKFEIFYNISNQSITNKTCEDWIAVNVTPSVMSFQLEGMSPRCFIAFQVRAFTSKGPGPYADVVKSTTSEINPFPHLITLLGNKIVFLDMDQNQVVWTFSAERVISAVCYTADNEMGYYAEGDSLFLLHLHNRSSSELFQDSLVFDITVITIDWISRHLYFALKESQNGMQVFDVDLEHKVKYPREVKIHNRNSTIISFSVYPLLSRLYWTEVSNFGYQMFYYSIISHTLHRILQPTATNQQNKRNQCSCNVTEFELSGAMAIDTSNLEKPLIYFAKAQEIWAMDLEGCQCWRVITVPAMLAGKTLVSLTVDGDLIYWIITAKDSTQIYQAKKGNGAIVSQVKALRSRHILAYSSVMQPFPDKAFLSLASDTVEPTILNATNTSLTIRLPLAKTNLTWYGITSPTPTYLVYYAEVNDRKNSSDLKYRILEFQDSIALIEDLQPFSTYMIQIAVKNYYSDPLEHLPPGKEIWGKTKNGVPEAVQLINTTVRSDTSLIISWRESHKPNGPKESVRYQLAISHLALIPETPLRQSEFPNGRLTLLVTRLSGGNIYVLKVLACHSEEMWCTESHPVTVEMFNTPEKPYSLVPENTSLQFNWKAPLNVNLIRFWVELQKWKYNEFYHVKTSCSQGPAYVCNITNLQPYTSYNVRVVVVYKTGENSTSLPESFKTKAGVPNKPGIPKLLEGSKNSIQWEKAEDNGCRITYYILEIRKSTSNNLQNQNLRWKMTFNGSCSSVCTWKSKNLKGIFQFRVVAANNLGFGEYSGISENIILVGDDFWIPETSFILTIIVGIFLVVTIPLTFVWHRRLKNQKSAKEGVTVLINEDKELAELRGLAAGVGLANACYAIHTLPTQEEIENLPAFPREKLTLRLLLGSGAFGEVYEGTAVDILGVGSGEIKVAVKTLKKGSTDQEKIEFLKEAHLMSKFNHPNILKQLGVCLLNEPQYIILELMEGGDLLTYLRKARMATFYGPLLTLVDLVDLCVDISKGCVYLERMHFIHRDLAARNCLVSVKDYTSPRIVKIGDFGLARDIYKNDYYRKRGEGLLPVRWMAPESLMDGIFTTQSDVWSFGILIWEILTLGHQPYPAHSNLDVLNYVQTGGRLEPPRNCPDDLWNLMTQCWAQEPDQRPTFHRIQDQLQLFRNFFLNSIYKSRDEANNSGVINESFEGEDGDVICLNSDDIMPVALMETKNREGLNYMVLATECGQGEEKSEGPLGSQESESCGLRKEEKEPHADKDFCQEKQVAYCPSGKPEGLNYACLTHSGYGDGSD
Assay [10] deals with Mitogen-activated protein kinase 11 (Homo sapiens) (UniProt Q15759). Briefly: Inhibition of human MAPK11 at 18.6 nM by HotSpot assay relative to control.
For assay [11], the target named is RAC-beta serine/threonine-protein kinase (Homo sapiens) (UniProt P31751). Briefly: Inhibition of human AKT2 at 18.6 nM by HotSpot assay relative to control.
RAC-beta serine/threonine-protein kinase (Homo sapiens), sequence (P31751 whole entry): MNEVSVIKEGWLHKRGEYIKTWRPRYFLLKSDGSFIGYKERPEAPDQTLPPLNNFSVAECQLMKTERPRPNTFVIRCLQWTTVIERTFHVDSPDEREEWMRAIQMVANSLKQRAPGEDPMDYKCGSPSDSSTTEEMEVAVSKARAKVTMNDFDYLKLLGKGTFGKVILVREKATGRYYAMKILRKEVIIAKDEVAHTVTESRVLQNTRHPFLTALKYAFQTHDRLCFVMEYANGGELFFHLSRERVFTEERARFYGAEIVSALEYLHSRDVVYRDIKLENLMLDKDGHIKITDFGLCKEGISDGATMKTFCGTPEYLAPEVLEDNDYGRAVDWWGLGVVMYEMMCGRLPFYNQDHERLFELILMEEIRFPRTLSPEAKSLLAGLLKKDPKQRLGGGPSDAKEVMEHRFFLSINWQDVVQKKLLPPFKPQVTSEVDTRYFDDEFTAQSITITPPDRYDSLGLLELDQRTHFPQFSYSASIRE
Assay [12] has as its target Mitogen-activated protein kinase 10 (Homo sapiens) (UniProt P53779). Briefly: Inhibition of human JNK3 at 18.6 nM by HotSpot assay relative to control.
The target in assay [13] is T3, Mitogen-activated protein kinase 13 (Homo sapiens) (UniProt O15264).
T3 sequence (whole entry): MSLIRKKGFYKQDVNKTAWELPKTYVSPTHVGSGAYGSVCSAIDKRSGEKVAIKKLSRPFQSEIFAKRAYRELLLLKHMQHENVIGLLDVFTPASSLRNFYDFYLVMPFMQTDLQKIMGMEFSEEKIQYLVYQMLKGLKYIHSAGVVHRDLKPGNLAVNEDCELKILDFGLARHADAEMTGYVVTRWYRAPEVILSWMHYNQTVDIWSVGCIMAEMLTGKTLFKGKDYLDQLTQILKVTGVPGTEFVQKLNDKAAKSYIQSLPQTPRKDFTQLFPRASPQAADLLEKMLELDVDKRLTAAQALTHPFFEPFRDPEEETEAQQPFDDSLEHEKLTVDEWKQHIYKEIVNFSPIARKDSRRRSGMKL
Briefly: Inhibition of human MAPK13 at 18.6 nM by HotSpot assay relative to control.

In assay [14] the target is Dual specificity mitogen-activated protein kinase kinase 1 (Homo sapiens) (UniProt Q02750). Briefly: Inhibition of human MEK1 at 18.6 nM by HotSpot assay relative to control.
Dual specificity mitogen-activated protein kinase kinase 1 (Homo sapiens), sequence (Q02750 whole entry): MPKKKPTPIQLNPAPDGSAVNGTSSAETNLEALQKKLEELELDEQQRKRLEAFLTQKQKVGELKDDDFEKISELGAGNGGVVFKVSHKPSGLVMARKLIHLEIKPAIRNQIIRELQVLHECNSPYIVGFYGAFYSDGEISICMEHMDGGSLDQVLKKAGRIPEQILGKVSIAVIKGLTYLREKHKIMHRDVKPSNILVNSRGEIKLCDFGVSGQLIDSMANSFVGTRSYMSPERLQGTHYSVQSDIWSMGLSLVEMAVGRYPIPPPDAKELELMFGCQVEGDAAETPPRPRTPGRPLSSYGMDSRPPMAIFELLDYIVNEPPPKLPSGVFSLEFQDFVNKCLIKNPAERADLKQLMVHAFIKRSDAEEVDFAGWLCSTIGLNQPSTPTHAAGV

LIM domain kinase 1 (Homo sapiens), sequence (P53667 whole entry, looked up, the tested form may be a part, canonical isoform): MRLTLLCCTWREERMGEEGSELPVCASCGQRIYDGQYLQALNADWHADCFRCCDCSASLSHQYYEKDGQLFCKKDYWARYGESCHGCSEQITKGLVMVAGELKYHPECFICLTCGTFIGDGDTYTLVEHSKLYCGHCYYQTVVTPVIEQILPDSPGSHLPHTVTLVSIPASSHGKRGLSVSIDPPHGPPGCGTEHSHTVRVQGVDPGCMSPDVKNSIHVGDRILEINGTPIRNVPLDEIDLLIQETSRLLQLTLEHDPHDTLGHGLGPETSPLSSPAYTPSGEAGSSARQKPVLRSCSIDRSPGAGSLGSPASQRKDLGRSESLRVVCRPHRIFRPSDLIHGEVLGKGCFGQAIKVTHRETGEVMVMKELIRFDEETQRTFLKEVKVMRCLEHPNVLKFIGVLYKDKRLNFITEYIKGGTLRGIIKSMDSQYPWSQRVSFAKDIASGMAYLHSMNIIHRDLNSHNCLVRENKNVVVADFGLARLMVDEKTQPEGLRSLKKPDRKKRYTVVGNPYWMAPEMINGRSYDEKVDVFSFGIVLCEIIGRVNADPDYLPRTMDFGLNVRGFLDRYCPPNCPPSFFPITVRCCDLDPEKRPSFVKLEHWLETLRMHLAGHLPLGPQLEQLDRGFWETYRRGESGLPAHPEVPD
Casein kinase I isoform alpha (Homo sapiens), sequence (P48729 2-337 limits assumed): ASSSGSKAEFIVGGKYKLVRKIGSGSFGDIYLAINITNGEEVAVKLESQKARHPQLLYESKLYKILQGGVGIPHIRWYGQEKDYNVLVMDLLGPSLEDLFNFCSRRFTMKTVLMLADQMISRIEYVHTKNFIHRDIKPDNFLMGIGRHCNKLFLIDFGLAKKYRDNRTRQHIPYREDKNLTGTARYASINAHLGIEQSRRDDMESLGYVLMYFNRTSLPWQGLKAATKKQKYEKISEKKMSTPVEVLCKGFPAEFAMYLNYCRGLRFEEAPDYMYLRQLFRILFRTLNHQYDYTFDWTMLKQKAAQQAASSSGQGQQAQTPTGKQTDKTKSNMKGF

As usually defined, the inhibition is the change of the read-out against control, counted positive when it falls. For the molecule `C[C@@]1(C(=O)Nc2ccc(F)nc2)CCCN1c1nc(Nc2cc(C3CC3)n[nH]2)c2cccn2n1`, the inhibition in assay [1] is -7.35%; in assay [2] it was -1.84%; in [3], -6.12%; in [4], 15.4%.
As to `C[C@]1(O)C[C@@H](c2nc(-c3ccc4ccc(-c5ccccc5)nc4c3)c3c(N)nccn32)C1`, the inhibition is 1.82% in assay [5]; -1% in assay [6]; -4.07% in [7]; 2.65% in assay [8]; -1.08% in [9]; -4.21% in assay [10]. Also, the inhibition in [11] is 0.3%; in assay [12], -3.24%; in assay [13], -4.06%; in assay [14], -8.63%.

The values are drawn from ChEMBL document CHEMBL5653615 (J Biol Chem, 2013).
